Measured values published in ChEMBL document CHEMBL5236630, “Discovery of selective platelet-derived growth factor receptor-beta (PDGFR-β) bifunctional small-molecule degraders” (Bioorg Med Chem, 2023).
Active and inactive are the calls of the source. The calls are words filed in the database; no cut-off is given here.

Assays:
EA.hy 926 = experiment: Antiproliferative activity against human EA.hy 926 cells assessed as reduction in cell viability incubated for 48 hrs by MTT assay; type: functional, cell-based; conditions: EA.hy 926, 48 h
HepG2 = experiment: Antiproliferative activity against human HepG2 cells assessed as reduction in cell viability incubated for 48 hrs by MTT assay; type: functional, cell-based; conditions: HepG2, 48 h
[1] = Antiproliferative activity against human U87 cells assessed as reduction in cell viability incubated for 48 hrs by MTT assay; type: functional, cell-based, U-87MG ATCC; conditions: U-87 MG
[2] = biological target: T1, von Hippel-Lindau disease tumor suppressor/Platelet-derived growth factor receptor beta (Homo sapiens) (UniProt P09619+P40337); experiment: Protac activity at VHL/PDGFRbeta in human U87 cells assessed as reduction in PDGFRbeta protein level at 0.1 to 15 uM incubated for 72 hrs by Western blot analysis; type: cell-based; conditions: dose 0.1-15 µM
T1 sequence (P09619 33-1106 limits assumed): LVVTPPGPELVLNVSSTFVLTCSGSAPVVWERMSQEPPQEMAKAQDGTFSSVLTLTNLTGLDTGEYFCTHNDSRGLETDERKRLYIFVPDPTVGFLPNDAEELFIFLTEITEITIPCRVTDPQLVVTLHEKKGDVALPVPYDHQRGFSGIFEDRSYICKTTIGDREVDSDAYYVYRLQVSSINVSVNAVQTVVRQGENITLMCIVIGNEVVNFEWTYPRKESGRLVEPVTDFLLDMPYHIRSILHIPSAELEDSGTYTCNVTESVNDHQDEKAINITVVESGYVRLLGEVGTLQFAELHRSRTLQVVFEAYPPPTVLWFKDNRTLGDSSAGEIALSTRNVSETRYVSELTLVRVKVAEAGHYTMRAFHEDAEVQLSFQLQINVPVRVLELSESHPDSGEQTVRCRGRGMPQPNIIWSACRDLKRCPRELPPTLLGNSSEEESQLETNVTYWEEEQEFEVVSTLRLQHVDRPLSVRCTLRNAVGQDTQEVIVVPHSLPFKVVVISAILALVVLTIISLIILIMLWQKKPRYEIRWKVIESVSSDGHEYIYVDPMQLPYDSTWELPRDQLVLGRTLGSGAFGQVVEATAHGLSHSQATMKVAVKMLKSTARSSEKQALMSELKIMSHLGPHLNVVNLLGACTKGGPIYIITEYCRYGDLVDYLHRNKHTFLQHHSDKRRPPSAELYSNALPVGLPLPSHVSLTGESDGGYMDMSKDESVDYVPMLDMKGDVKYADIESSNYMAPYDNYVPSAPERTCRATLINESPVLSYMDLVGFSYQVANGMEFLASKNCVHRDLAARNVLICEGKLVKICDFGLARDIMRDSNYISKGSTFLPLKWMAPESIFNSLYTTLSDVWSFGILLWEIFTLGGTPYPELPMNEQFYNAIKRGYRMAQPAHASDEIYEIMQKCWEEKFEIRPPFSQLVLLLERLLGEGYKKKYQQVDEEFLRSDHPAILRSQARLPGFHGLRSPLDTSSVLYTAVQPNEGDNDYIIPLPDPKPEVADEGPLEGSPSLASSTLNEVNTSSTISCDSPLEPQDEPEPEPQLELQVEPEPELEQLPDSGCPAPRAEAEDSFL
T1 sequence (P40337 whole entry partner): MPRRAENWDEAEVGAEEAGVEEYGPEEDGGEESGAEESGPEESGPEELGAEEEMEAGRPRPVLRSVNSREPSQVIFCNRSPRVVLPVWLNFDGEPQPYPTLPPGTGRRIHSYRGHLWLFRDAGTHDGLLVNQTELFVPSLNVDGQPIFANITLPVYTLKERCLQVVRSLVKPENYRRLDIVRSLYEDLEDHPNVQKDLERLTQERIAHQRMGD

HEK293 = experiment: Cytotoxicity against human HEK293 cells assessed as reduction in cell viability at 50 uM incubated for 48 hrs by MTT assay; type: toxicity, cell-based; conditions: hek293, 48 h
[3] = biological target: Platelet-derived growth factor receptor beta (Homo sapiens) (UniProt P09619); experiment: Protac activity at PDGFRbeta in human U87 cells assessed as reduction in PDGFRbeta protein level at 0.1 to 10 uM incubated for 48 to 72 hrs by Western blot analysis; type: cell-based; conditions: dose 0.1-10 µM, time 48-72 hrs
Chain of Platelet-derived growth factor receptor beta (Homo sapiens) (P09619 whole entry): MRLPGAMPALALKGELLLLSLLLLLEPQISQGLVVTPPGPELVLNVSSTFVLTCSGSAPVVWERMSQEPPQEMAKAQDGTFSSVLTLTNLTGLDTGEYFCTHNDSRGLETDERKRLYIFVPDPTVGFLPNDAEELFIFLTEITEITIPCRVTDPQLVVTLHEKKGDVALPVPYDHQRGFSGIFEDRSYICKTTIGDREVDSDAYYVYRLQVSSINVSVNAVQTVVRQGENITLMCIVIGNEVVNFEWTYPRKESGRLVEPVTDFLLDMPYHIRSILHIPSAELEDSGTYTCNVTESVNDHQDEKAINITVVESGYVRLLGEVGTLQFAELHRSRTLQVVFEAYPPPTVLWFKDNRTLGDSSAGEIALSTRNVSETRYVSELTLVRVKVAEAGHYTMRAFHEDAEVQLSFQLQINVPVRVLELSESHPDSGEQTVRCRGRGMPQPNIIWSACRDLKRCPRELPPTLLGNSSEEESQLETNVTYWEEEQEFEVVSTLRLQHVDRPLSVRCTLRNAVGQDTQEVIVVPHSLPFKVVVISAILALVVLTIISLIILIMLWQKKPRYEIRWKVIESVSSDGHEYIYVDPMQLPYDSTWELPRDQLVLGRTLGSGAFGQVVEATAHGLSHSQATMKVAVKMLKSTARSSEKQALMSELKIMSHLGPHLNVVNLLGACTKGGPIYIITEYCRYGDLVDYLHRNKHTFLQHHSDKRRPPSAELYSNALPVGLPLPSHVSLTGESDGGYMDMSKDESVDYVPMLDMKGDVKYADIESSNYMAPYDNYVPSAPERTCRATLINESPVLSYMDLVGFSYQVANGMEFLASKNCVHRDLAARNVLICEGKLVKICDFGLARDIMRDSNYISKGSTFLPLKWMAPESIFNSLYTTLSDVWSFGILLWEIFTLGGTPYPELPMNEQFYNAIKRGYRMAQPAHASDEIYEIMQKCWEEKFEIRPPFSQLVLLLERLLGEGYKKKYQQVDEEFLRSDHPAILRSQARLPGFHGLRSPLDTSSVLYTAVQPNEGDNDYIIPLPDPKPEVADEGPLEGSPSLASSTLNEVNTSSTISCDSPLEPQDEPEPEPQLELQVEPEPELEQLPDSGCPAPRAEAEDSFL

[4] = biological target: Platelet-derived growth factor receptor beta (Homo sapiens) (UniProt P09619); experiment: Protac activity at PDGFRbeta in human U87 cells assessed as reduction in PDGFRbeta protein level at 10 uM incubated for 48 hrs by Western blot analysis; type: cell-based
[5] = biological target: Platelet-derived growth factor receptor beta (Homo sapiens) (UniProt P09619); experiment: Protac activity at PDGFRbeta in human U87 cells assessed as reduction in PDGFRbeta protein level at 10 uM incubated for 72 hrs by Western blot analysis; type: cell-based; design: scale not given: the % may be the effect or the level left
[6] = biological target: Platelet-derived growth factor receptor beta (Homo sapiens) (UniProt P09619); experiment: Protac activity at PDGFRbeta in human U87 cells assessed as increase in VEGFR-2 protein level at 10 uM incubated for 72 hrs by Western blot analysis; type: cell-based
[7] = biological target: Serine/threonine-protein kinase B-raf (Homo sapiens) (UniProt P15056); experiment: Protac activity at BRAF in human EA.hy 926 cells assessed decrease in BRAF level at 10 uM incubated for 72 hrs by Western blot analysis; type: cell-based
Chain of Serine/threonine-protein kinase B-raf (Homo sapiens) (P15056 whole entry): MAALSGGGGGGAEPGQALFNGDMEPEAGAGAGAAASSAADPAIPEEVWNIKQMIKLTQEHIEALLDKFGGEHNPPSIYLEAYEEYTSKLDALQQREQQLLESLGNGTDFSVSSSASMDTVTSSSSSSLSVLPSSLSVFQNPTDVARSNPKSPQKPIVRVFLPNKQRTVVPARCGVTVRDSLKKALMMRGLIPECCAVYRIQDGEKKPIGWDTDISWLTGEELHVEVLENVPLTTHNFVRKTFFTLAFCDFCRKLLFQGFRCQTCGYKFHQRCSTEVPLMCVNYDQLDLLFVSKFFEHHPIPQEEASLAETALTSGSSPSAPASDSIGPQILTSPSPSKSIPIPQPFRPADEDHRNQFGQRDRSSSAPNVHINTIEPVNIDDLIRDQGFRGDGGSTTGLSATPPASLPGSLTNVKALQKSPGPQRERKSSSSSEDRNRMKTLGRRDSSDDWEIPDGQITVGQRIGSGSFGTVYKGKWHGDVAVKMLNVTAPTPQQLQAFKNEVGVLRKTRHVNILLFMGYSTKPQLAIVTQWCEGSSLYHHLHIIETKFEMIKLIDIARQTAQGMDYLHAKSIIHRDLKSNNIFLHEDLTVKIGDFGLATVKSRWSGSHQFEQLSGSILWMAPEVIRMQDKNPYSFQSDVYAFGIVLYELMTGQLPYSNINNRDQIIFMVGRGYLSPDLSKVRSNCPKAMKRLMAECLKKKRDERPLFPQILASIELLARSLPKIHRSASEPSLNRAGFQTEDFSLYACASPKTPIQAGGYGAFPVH

[8] = biological target: T1, von Hippel-Lindau disease tumor suppressor/Platelet-derived growth factor receptor beta (Homo sapiens); experiment: Protac activity at VHL/PDGFRbeta in human U87 cells assessed as reduction in PDGFRbeta protein level at 10 uM incubated for 4 to 16 hrs by Western blot analysis; type: cell-based; conditions: time 4-16 hrs
[9] = biological target: T1, von Hippel-Lindau disease tumor suppressor/Platelet-derived growth factor receptor beta (Homo sapiens); experiment: Protac activity at VHL/PDGFRbeta in human U87 cells assessed as reduction in PDGFRbeta protein level at 10 uM preincubated with VH032 for 2hrs followed by compound treatment and measured after 48 hrs by Western blot analysis; type: cell-based
[10] = biological target: T1, von Hippel-Lindau disease tumor suppressor/Platelet-derived growth factor receptor beta (Homo sapiens); experiment: Protac activity at VHL/PDGFRbeta in human U87 cells assessed as reduction in PDGFRbeta protein level at 10 uM preincubated with sorafenib for 2hrs followed by compound treatment and measured after 48 hrs by Western blot analysis; type: cell-based
[11] = biological target: T1, von Hippel-Lindau disease tumor suppressor/Platelet-derived growth factor receptor beta (Homo sapiens); experiment: Protac activity at VHL/PDGFRbeta in human U87 cells assessed as reduction in PDGFRbeta protein level at 10 uM preincubated with MG-132 for 2hrs followed by compound treatment and measured after 48 hrs by Western blot analysis; type: cell-based
[12] = biological target: T1, von Hippel-Lindau disease tumor suppressor/Platelet-derived growth factor receptor beta (Homo sapiens); experiment: Protac activity at VHL/PDGFRbeta in human U87 cells assessed as reduction in PDGFRbeta protein level at 10 uM preincubated with Carfilzomib for 2hrs followed by compound treatment and measured after 48 hrs by Western blot analysis; type: cell-based
[13] = biological target: T1, von Hippel-Lindau disease tumor suppressor/Platelet-derived growth factor receptor beta (Homo sapiens); experiment: Protac activity at VHL/PDGFRbeta in human U87 cells assessed as reduction in PDGFRbeta protein level at 10 uM preincubated with Leupeptin for 2hrs followed by compound treatment and measured after 48 hrs by Western blot analysis; type: cell-based
[14] = Induction of apoptosis in human U87 cells assessed as necrotic cells at 0.1 uM incubated for 48 hrs by Annexin-V/PI staining based flow cytometry (Rvb= 1.13%); type: functional, U-87MG ATCC
[15] = Induction of apoptosis in human U87 cells assessed as necrotic cells at 1 uM incubated for 48 hrs by Annexin-V/PI staining based flow cytometry (Rvb= 1.13%); type: functional, U-87MG ATCC
[16] = Induction of apoptosis in human U87 cells assessed as necrotic cells at 5 uM incubated for 48 hrs by Annexin-V/PI staining based flow cytometry (Rvb= 1.13%); type: functional, U-87MG ATCC
[17] = Induction of apoptosis in human U87 cells assessed as necrotic cells at 10 uM incubated for 48 hrs by Annexin-V/PI staining based flow cytometry (Rvb= 1.13%); type: functional, U-87MG ATCC
[18] = Induction of apoptosis in human U87 cells assessed as necrotic cells at 20 uM incubated for 48 hrs by Annexin-V/PI staining based flow cytometry (Rvb= 1.13%); type: functional, U-87MG ATCC
[19] = Induction of apoptosis in human U87 cells assessed as early apoptotic cells at 0.1 uM incubated for 48 hrs by Annexin-V/PI staining based flow cytometry (Rvb= 2.74%); type: functional, U-87MG ATCC
[20] = Induction of apoptosis in human U87 cells assessed as early apoptotic cells at 1 uM incubated for 48 hrs by Annexin-V/PI staining based flow cytometry (Rvb= 2.74%); type: functional, U-87MG ATCC
[21] = Induction of apoptosis in human U87 cells assessed as early apoptotic cells at 5 uM incubated for 48 hrs by Annexin-V/PI staining based flow cytometry (Rvb= 2.74%); type: functional, U-87MG ATCC
[22] = Induction of apoptosis in human U87 cells assessed as early apoptotic cells at 10 uM incubated for 48 hrs by Annexin-V/PI staining based flow cytometry (Rvb= 2.74%); type: functional, U-87MG ATCC
[23] = Induction of apoptosis in human U87 cells assessed as early apoptotic cells at 20 uM incubated for 48 hrs by Annexin-V/PI staining based flow cytometry (Rvb= 2.74%); type: functional, U-87MG ATCC
[24] = Induction of apoptosis in human U87 cells assessed as late apoptotic cells at 0.1 uM incubated for 48 hrs by Annexin-V/PI staining based flow cytometry (Rvb= 2.97%); type: functional, U-87MG ATCC
[25] = Induction of apoptosis in human U87 cells assessed as late apoptotic cells at 1 uM incubated for 48 hrs by Annexin-V/PI staining based flow cytometry (Rvb= 2.97%); type: functional, U-87MG ATCC
[26] = Induction of apoptosis in human U87 cells assessed as late apoptotic cells at 5 uM incubated for 48 hrs by Annexin-V/PI staining based flow cytometry (Rvb= 2.97%); type: functional, U-87MG ATCC
[27] = Induction of apoptosis in human U87 cells assessed as late apoptotic cells at 10 uM incubated for 48 hrs by Annexin-V/PI staining based flow cytometry (Rvb= 2.97%); type: functional, U-87MG ATCC
[28] = Induction of apoptosis in human U87 cells assessed as late apoptotic cells at 20 uM incubated for 48 hrs by Annexin-V/PI staining based flow cytometry (Rvb= 2.97%); type: functional, U-87MG ATCC
[29] = Induction of apoptosis in human U87 cells assessed as viable cells at 0.1 uM incubated for 48 hrs by Annexin-V/PI staining based flow cytometry (Rvb= 93.16%); type: functional, U-87MG ATCC; conditions: U-87 MG, read-out: Activity
[30] = Induction of apoptosis in human U87 cells assessed as viable cells at 1 uM incubated for 48 hrs by Annexin-V/PI staining based flow cytometry (Rvb= 93.16%); type: functional, U-87MG ATCC; conditions: U-87 MG, read-out: Activity
[31] = Induction of apoptosis in human U87 cells assessed as viable cells at 5 uM incubated for 48 hrs by Annexin-V/PI staining based flow cytometry (Rvb= 93.16%); type: functional, U-87MG ATCC; conditions: U-87 MG, read-out: Activity
[32] = Induction of apoptosis in human U87 cells assessed as viable cells at 10 uM incubated for 48 hrs by Annexin-V/PI staining based flow cytometry (Rvb= 93.16%); type: functional, U-87MG ATCC; conditions: U-87 MG, read-out: Activity
[33] = Induction of apoptosis in human U87 cells assessed as viable cells at 20 uM incubated for 48 hrs by Annexin-V/PI staining based flow cytometry (Rvb= 93.16%); type: functional, U-87MG ATCC; conditions: U-87 MG, read-out: Activity
U-87MG ATCC [34] = experiment: Induction of cell cycle arrest in human U87 cells assessed increase of cells in S phase at 1 to 10 uM incubated for 48 hrs by flow cytometry; type: functional, cell-based; conditions: dose 1-10 µM
U-87MG ATCC [35] = experiment: Induction of cell cycle arrest in human U87 cells assessed decrease of cells in G2 phase at 1 to 10 uM incubated for 48 hrs by flow cytometry; type: functional, cell-based; conditions: dose 1-10 µM

## Cc1ncsc1-c1ccc(CNC(=O)[C@@H]2C[C@H](O)CN2C(=O)[C@@H](NC(=O)CCCNC(=O)c2cc(Oc3ccc(NC(=O)Nc4ccc(Cl)c(C(F)(F)F)c4)cc3)ccn2)C(C)(C)C)cc1
EA.hy 926
  IC50: > 50 µM
HepG2
  IC50: > 50 µM
[1]
  IC50: 20.3 µM
[2]
  Activity: inactive

## Cc1ncsc1-c1ccc(CNC(=O)[C@@H]2C[C@@H](O)CN2C(=O)[C@@H](NC(=O)CCCNC(=O)c2cc(Oc3ccc(NC(=O)Nc4ccc(Cl)c(C(F)(F)F)c4)cc3)ccn2)C(C)(C)C)cc1
[1]
  IC50: 12.3 µM
HEK293
  Activity: Non-Toxic
[3]
  Activity: Dose-Dependent Effect
[4]
  Activity: Active
[5]
  Activity: > 70%
[6]
  Activity: Active
[7]
  Activity: Active
[8]
  Activity: Dose-Dependent Effect
[9]
  Activity: Active
[10]
  Activity: Active
[11]
  Activity: inactive
[12]
  Activity: Active
[2]
  Activity: Active
[13]
  Activity: inactive
[14]
  Activity: 0.89%
[15]
  Activity: 0.49%
[16]
  Activity: 0.63%
[17]
  Activity: 0.85%
[18]
  Activity: 1.63%
[19]
  Activity: 2.02%
[20]
  Activity: 1.66%
[21]
  Activity: 1.66%
[22]
  Activity: 2.49%
[23]
  Activity: 3.25%
[24]
  Activity: 1.82%
[25]
  Activity: 1.71%
[26]
  Activity: 1.59%
[27]
  Activity: 2.03%
[28]
  Activity: 4.56%
[29]
  viability at 0.1 µM: 95.3%
[30]
  viability at 1 µM: 96.2%
[31]
  viability at 5 µM: 96.1%
[32]
  viability at 10 µM: 94.6%
[33]
  viability at 20 µM: 90.6%
U-87MG ATCC [34]
  Activity: Active
U-87MG ATCC [35]
  Activity: Active

## O=C1CCC(N2Cc3c(NC(=O)CCCNC(=O)c4cc(Oc5ccc(NC(=O)Nc6ccc(Cl)c(C(F)(F)F)c6)cc5)ccn4)cccc3C2=O)C(=O)N1 (stereo unspecified)
EA.hy 926
  IC50: 13.4 µM
HepG2
  IC50: 0.039 µM
HEK293
  Activity: Non-Toxic
[3]
  Activity: Dose-Dependent Effect
[4]
  Activity: Active
[5]
  Activity: > 70%
[6]
  Activity: Active

## O=C(CNc1cccc2c1C(=O)N(C1CCC(=O)NC1=O)C2=O)NCCCCNC(=O)c1cc(Oc2ccc(NC(=O)Nc3ccc(Cl)c(C(F)(F)F)c3)cc2)ccn1 (stereo unspecified)
HEK293
  Activity: Non-Toxic
[3]
  Activity: Dose-Dependent Effect
[4]
  Activity: Active
[5]
  Activity: > 70%
[6]
  Activity: Active

## CNC(=O)c1cc(Oc2ccc(NC(=O)Nc3ccc(Cl)c(C(F)(F)F)c3)cc2)ccn1 [SORAFENIB]
EA.hy 926
  IC50: 11 µM
HepG2
  IC50: 2.69 µM
[1]
  IC50: 12.7 µM
HEK293
  Activity: Non-Toxic
